Earlier results on one molecule are cited in US20120122825A1, “USE OF PICOPLATIN TO TREAT PROSTATE CANCER” (Poniard Pharmaceuticals, Inc., priority 2009, published 2012).

The test system of series [1] is patients with solid tumors. Particulars: picoplatin and docetaxel combination, 33 patients with solid tumors.
In series [2] the test system is men with HRPC.
[3] abbreviates: 30 mg/m^2 docetaxel weekly for 5 of 6 weeks plus 5 mg prednisone twice daily.

As for `CC(=O)O[C@@]12CO[C@@H]1C[C@H](O)[C@@]1(C)C(=O)[C@H](O)C3=C(C)[C@@H](OC(=O)[C@H](O)[C@@H](NC(=O)OC(C)(C)C)c4ccccc4)C[C@@](O)([C@@H](OC(=O)c4ccccc4)[C@H]21)C3(C)C` [docetaxel], in series [1], the “dose limiting toxicity (DLT) dose” value is given as 75 mg/m^2 and the “recommended Phase II dose (PTD)” value was 75 mg/m^2. Besides, in series [2] (setting [3]), the “>50% reductions in PSA, share of men” value is 48% and the Overall survival is given as 17.4 months. The PSA response expected in series [2] (docetaxel alone, comparison value) is 45%.
